For one assay, the system named is 15O31. The assay is described as follows: SRB growth inhibition, 93 cell lines panel. The assay is classed as cell-based. The note with it: 15O31, kidney; read-out: GI50 of etoposide (±Compound 1). As for the experimental part: (§1) 90 μl of cells, after a 48-hour pre-growth period, were treated by mixing with 10 μl of the compound-containing media (resulting in a final DMSO concentration of 0.1%).
(§2) This is the drug concentration causing a 50% reduction compared to the net protein increase in control cells during the drug incubation period. In other words, G150 is IC50 corrected for time zero. […] TGI was calculated from Ti=Tz. […] It was calculated as 100×[(Ti−Tz)/Tz]=−50.

The subject of the next assay is 5637. Briefly: SRB growth inhibition, 93 cell lines panel. The note with it: 5637, bladder; read-out: GI50 of etoposide (±Compound 1). Format: cell-based. The method, then: as §1, §2
The subject of the next assay is A204. The assay is described as follows: SRB growth inhibition, 93 cell lines panel. Format: cell-based. As to conditions: Homo sapiens; A204, muscle; read-out: GI50 of etoposide (±Compound 1). The method, then: as §1, §2
The next assay deals with A549. Briefly: SRB growth inhibition, 93 cell lines panel. The note with it: Homo sapiens; A549, lung; read-out: GI50 of etoposide (±Compound 1). The assay is classed as cell-based. As for the experimental part:
as §1, §2

For another assay, the system named is A673. Briefly: SRB growth inhibition, 93 cell lines panel. Format: cell-based. The note with it: Homo sapiens; A673, muscle; read-out: GI50 of etoposide (±Compound 1). The method, then: as §1, §2
The next assay relates to C33A. The assay is described as follows: SRB growth inhibition, 93 cell lines panel. Format: cell-based. The note with it: Homo sapiens, C-33-A, cervix, read-out: GI50 of etoposide (±Compound 1). As for the experimental part:
as §1, §2

The next assay concerns CAKI1. The assay is described as follows: SRB growth inhibition, 93 cell lines panel. As to conditions: Homo sapiens, CAKI-1; CAKI1, kidney; read-out: GI50 of etoposide (±Compound 1). The assay is classed as cell-based. The method, then:
as §1, §2

The test system of a further assay is CASKI. The assay is described as follows: SRB growth inhibition, 93 cell lines panel. The assay is classed as cell-based. As to conditions: Homo sapiens, Ca-Ski, cervix, read-out: GI50 of etoposide (±Compound 1). As for the experimental part: as §1, §2
The next assay relates to CLS439. Briefly: SRB growth inhibition, 93 cell lines panel. Format: cell-based. The note with it: CLS439, bladder; read-out: GI50 of etoposide (±Compound 1). As for the experimental part:
as §1, §2

The next assay has as its system EFO21. The assay is described as follows: SRB growth inhibition, 93 cell lines panel. Format: cell-based. The note with it: Homo sapiens, EFO-21; EFO21, ovary; read-out: GI50 of etoposide (±Compound 1). The method, then:
as §1, §2

The subject of another assay is HL-60. The assay is described as follows: SRB growth inhibition, 93 cell lines panel. The assay is classed as cell-based. The note with it: Homo sapiens; HL-60, hematological; read-out: GI50 of etoposide (±Compound 1). As for the experimental part:
as §1, §2

The test system of the next assay is IGROV1. The assay is described as follows: SRB growth inhibition, 93 cell lines panel. The assay is classed as cell-based. As to conditions: Homo sapiens, IGROV-1; IGROV1, ovary; read-out: GI50 of etoposide (±Compound 1). As for the experimental part: as §1, §2
A further assay deals with JEG3. The assay is described as follows: SRB growth inhibition, 93 cell lines panel. Format: cell-based. As to conditions: Homo sapiens, JEG-3; JEG3, placenta; read-out: GI50 of etoposide (±Compound 1). The method, then: as §1, §2
For a further assay, the system named is MDAMB435. The assay is described as follows: SRB growth inhibition, 93 cell lines panel. Format: cell-based. The note with it: Homo sapiens, MDA-MB-435; MDAMB435, skin; read-out: GI50 of etoposide (±Compound 1). As for the experimental part:
as §1, §2

The next assay relates to MV4-11. Briefly: SRB growth inhibition, 93 cell lines panel. As to conditions: Homo sapiens; MV4-11, hematological; read-out: GI50 of etoposide (±Compound 1). Format: cell-based. As for the experimental part:
as §1, §2

The next assay concerns NCIH82. Briefly: SRB growth inhibition, 93 cell lines panel. Format: cell-based. As to conditions: Homo sapiens, NCI-H82; NCIH82, lung; read-out: GI50 of etoposide (±Compound 1). As for the experimental part:
as §1, §2

Another assay concerns PANC1005. The assay is described as follows: SRB growth inhibition, 93 cell lines panel. The assay is classed as cell-based. As to conditions: Homo sapiens; PANC1005, pancreas; read-out: GI50 of etoposide (±Compound 1). As for the experimental part:
as §1, §2

The next assay concerns SKMEL28. The assay is described as follows: SRB growth inhibition, 93 cell lines panel. Format: cell-based. The note with it: Homo sapiens, SK-MEL-28; SKMEL28, skin; read-out: GI50 of etoposide (±Compound 1). As for the experimental part: as §1, §2
For another assay, the system named is THP-1. Briefly: SRB growth inhibition, 93 cell lines panel. Format: cell-based. The note with it: Homo sapiens; THP-1, hematological; read-out: GI50 of etoposide (±Compound 1). The method, then: as §1, §2
The subject of another assay is colon cancer cell lines. Briefly: cells. As to conditions: read-out: Median etoposide concentration needed to reach GI50.
The next assay deals with T24. Briefly: cells. The note with it: Homo sapiens, T-24, read-out: GI50 of etoposide (±Compound 1).
Assay [1] concerns LoVo colon carcinoma xenografts. The assay is described as follows: Single agent efficacy, ATM pathway deficient LoVo xenograft. The assay is classed as in vivo, mouse. From the text:
We tested the effect of Compound 1 on the growth of established LoVo colon carcinoma xenografts that are known to be deficient in ATM pathway function due to mutation in the MRE11 protein.

Assay [2] concerns the target T1, DNA-PK (p-Ser2056) (Homo sapiens, UniProt P78527).
T1 construct: from tissue; host or cells: human tumor xenografts (FaDu, HCT116, WM164) grown in mice
The assay is described as follows: IR-induced DNA-PK phosphorylation in tumor tissue, ELISA, FaDu xenograft. Format: in vivo. The note with it: IR 50 Gy. From the text:
(§3) Following the induction of DSB by radiation therapy or other DNA damaging agents, the catalytic subunit of DNA-PK (DNA-PKc) is autophosphorylated at several serine and threonine residues. Ser2056 is one of the most prominent and best studied autophosphorylation sites. Because Ser2056 phosphorylation (p-Ser2056) correlated well with DNA-PK activation state it was chosen as the pharmacodynamics (PD) biomarker. Two different assay formats were established to measure p-Ser2056 in tumor tissue: ELISA and MSD format. In order to detect sequence reliable signal, IR was used at 50 Gy for the ELISA assay and 10 Gy for the more sensitive MSD assay.

In assay [3] the target is T1, DNA-PK (p-Ser2056). The assay is described as follows: IR-induced DNA-PK phosphorylation in tumor tissue, MSD assay, WM164 xenograft. The assay is classed as in vivo.
Text: as §3

SMILES strings stand for the structures.

These results are taken from US11246929B2, “Combination of a protein kinase inhibitor and an additional chemotherapeutic agent” (Merck Patent GmbH, priority 2016, dated 2022).

Experimental for T24: Cell growth and treatment were performed in 96-well microtitre plates CELLSTAR® (Greiner Bio-One, Germany). Cells harvested from exponential phase cultures by trypsinization or by splitting (in the case of cells growing in suspension) were plated in 90 μl of media at optimal seeding densities. The optimal seeding density for each cell line was determined to ensure exponential growth for the duration of the experiment. All cells growing without anticancer agents were sub-confluent by the end of the treatment, as determined by visual inspection.
90 μl of cells, after a 48-hour pre-growth period, were treated by mixing with 10 μl of the compound-containing media (resulting in a final DMSO concentration of 0.1%). The cells were allowed to grow at 37° C. for 72 (or 120) hours.
Cells were fixed to the surface by addition of 10% TCA (for adherent growing cells) or 50% TCA (for semi-adherent growing cell or cells growing in suspension). After an hour of incubation at 4° C. plates were washed twice with 200 μl of deionized water and dried. Cells were then stained with 100 μl of 0.04% w/v SRB. […]
Using these measurements, cellular responses can be calculated for incomplete inhibition of cell growth (GI), complete inhibition of cell growth (TGI) and net loss of cells (LC) due to compound activity. […] TGI was calculated from Ti=Tz. […] It was calculated as 100×[(Ti−Tz)/Tz]=−50.
Experimental for colon cancer cell lines: Single agent as well as combination treatment growth inhibition effects were measured by ONCOLEAD.
Relative area above the dose-response curve (relAOC or AOC) were obtained as the area above the dose-response curve in the dose range between 1E-3M and 1E-10M.

As for `COc1cc([C@@H]2c3cc4c(cc3[C@@H](O[C@@H]3O[C@@H]5CO[C@@H](C)O[C@H]5[C@H](O)[C@H]3O)[C@H]3COC(=O)[C@H]23)OCO4)cc(OC)c1O` [Etoposide], the GI50 in the assay with 15O31 amounted to 7910 nM; in the assay with 5637, 685 nM; in the assay on A204, 286 nM; in the assay with A549 it was 390 nM; in the assay with A673, 1080 nM; with C33A, 393 nM. Further, the GI50 is 520 nM with CAKI1; 1450 nM in the assay on CASKI; 965 nM with CLS439; 8220 nM with EFO21; 120 nM in the assay with HL-60; 1060 nM with IGROV1. Further, the GI50 in the assay on JEG3 was 41 nM; in the assay on MDAMB435, 1140 nM; in the assay with MV4-11 it was 38 nM; in the assay with NCIH82, 1150 nM; with PANC1005 it was 2730 nM; in the assay on SKMEL28, 1890 nM. For the same molecule, the GI50 with THP-1 amounted to 110 nM; in the assay with colon cancer cell lines, 700 nM; in the assay on T24, 2530 nM.
As for `COc1ccc([C@@H](O)c2cc(-c3ncnc4cc(N5CCOCC5)ccc34)c(F)cc2Cl)nn1` [Compound 1, (S)-[2-chloro-4-fluoro-5-(7-morpholin-4-yl-quinazolin-4-yl)-phenyl]-(6-methoxy-pyridazin-3-yl)-methanol], the tumor growth suppression entry in [1] (150 mg/kg, three weeks) is recorded as “nearly complete growth suppression”. For the same molecule, in assay [1] (three week administration), the tumor growth inhibition result is on record as “dose-dependent tumor growth inhibition”. The “inhibition of IR-induced DNA-PK phosphorylation (Ser2056)” value is “Dose-dependent inhibition” against DNA-PK (p-Ser2056) [2] and “Dose-dependent inhibition” on DNA-PK (p-Ser2056) [3] (WM164, MSD assay, IR 10 Gy). Besides, the “DNA-PK autophosphorylation in tumor tissue” value on DNA-PK (p-Ser2056) [3] (WM164, 25 mg/kg 10 minutes prior to 10 Gy IR) is listed as “inhibition of DNA-PK autophosphorylation”.
